In US7910751B2, “Heterocyclidene acetamide derivative” (Mochida Pharmaceutical Co., Ltd., priority 2005, dated 2011):

Target: T1, human TRPV1 (Homo sapiens, UniProt Q8NER1)
T1 construct: expressed in transfected cells; host or cells: CHO-K1
Experiment: Measurement of capsaicin-induced Ca influx in human TRPV1 transformed CHO cell line using FDSS-6000
Type: cell-based
Conditions: concentration at which the capsaicin concentration-reaction curve is shifted two times to the right, human TRPV1 transformed CHO cells

T1 sequence (Q8NER1 whole entry): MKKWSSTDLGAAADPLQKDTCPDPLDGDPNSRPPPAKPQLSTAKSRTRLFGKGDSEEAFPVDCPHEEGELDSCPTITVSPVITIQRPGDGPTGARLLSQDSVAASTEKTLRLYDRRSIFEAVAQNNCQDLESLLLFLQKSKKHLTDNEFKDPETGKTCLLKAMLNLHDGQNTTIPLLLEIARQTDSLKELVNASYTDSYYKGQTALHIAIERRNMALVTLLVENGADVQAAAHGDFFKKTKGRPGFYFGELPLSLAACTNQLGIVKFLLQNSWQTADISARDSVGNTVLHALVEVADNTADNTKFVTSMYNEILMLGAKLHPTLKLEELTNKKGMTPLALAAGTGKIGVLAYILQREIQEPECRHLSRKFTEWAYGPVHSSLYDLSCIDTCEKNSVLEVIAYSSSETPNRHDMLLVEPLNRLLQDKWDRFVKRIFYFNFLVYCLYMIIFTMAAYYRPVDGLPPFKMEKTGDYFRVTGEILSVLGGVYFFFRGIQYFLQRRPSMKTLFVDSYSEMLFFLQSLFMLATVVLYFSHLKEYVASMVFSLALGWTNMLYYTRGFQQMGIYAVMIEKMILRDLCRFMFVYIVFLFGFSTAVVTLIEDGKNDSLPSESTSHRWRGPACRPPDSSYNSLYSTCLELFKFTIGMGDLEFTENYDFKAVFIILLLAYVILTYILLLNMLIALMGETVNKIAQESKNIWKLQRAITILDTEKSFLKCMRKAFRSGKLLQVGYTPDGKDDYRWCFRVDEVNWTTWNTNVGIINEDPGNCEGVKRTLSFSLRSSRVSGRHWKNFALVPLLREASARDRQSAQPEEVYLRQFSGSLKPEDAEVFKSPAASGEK

SMILES | A2 VALUE
O=C(/C=C1\CCCOc2cc(C(F)(F)F)ccc21)Nc1cccc2c1CC(O)C(O)C2 (stereo not drawn) [Example 65, (E)-2-(8-trifluoromethyl-3,4-dihydrobenzo[b]oxepin-5-(2H)-ylidene)-N-(trans-6,7-dihydroxy-5,6,7,8-tetrahydronaphthalen-1-yl)acetamide] | A (compounds of the present invention having an A2 value of less than 100 nM are represented by A)
O=C(/C=C1\CCCOc2cc(C(F)(F)F)ccc21)Nc1cccc2c1CC(O)C(O)C2 (stereo not drawn) [Example 66, (E)-2-(8-trifluoromethyl-3,4-dihydrobenzo[b]oxepin-5-(2H)-ylidene)-N-(cis-6,7-dihydroxy-5,6,7,8-tetrahydronaphthalen-1-yl)acetamide] | A (compounds of the present invention having an A2 value of less than 100 nM are represented by A)
O=C(/C=C1\CCCOc2cc(C(F)(F)F)ccc21)Nc1cccc2c1CC(O)C(=O)N2 (stereo not shown) [Example 67, (E)-2-(8-trifluoromethyl-3,4-dihydrobenzo[b]oxepin-5(2H)-ylidene)-N-(3-hydroxy-2-oxo-1,2,3,4-tetrahydroquinolin-5-yl)acetamide] | A (compounds of the present invention having an A2 value of less than 100 nM are represented by A)
O=C(/C=C1\CCCOc2cc(C(F)(F)F)ccc21)Nc1cccc2c1CC(O)CN2 (stereo not shown) [Example 68, (E)-2-(8-trifluoromethyl-3,4-dihydrobenzo[b]oxepin-5(2H)-ylidene)-N-(3-hydroxy-1,2,3,4-tetrahydroquinolin-5-yl)acetamide] | A (compounds of the present invention having an A2 value of less than 100 nM are represented by A)
CN1CC(O)Cc2c(NC(=O)/C=C3\CCCOc4cc(C(F)(F)F)ccc43)cccc21 (stereo not shown) [Example 69, (E)-2-(8-trifluoromethyl-3,4-dihydrobenzo[b]oxepin-5-(2H)-ylidene)-N-(1-methyl-3-hydroxy-1,2,3,4-tetrahydroquinolin-5-yl)acetamide] | A (compounds of the present invention having an A2 value of less than 100 nM are represented by A)
O=C(/C=C1\CCOc2cc(C(F)(F)F)ccc21)Nc1cccc2c1CC(O)CC2 (stereo not shown) [Example 70, (E)-2-(7-trifluoromethyl-chroman-4-ylidene)-N-(7-hydroxy-5,6,7,8-tetrahydronaphthalen-1-yl)acetamide] | A (compounds of the present invention having an A2 value of less than 100 nM are represented by A)
O=C(/C=C1\CCOc2cc(C(F)(F)F)ccc21)Nc1cccc2c1CC(O)CC2 (stereo not shown) [Example 71, (E)-2-(7-trifluoromethyl-chroman-4-ylidene)-N-(7-hydroxy-5,6,7,8-tetrahydronaphthalen-1-yl)acetamide] | A (compounds of the present invention having an A2 value of less than 100 nM are represented by A)
O=C(/C=C1\CCOc2cc(C(F)(F)F)ccc21)Nc1cccc2c1CC(O)CC2 (stereo not shown) [Example 72, (E)-2-(7-trifluoromethyl-chroman-4-ylidene)-N-(7-hydroxy-5,6,7,8-tetrahydronaphthalen-1-yl)acetamide] | A (compounds of the present invention having an A2 value of less than 100 nM are represented by A)
O=C(/C=C1\CCN(C(=O)C2CCCC2)c2cc(C(F)(F)F)ccc21)Nc1ccc2cccnc2c1 [Example 73, (E)-2-(1-cyclopentanecarbonyl-7-trifluoromethyl-2,3-dihydroquinolin-4(1H)-ylidene)-N-(quinolin-7-yl)acetamide] | A (compounds of the present invention having an A2 value of less than 100 nM are represented by A)
CCCCC(=O)N1CC/C(=C\C(=O)Nc2cccc3ccc(O)cc23)c2ccc(C(F)(F)F)cc21 [Example 74, (E)-2-(1-pentanoyl-7-trifluoromethyl-2,3-dihydroquinolin-4(1H)-ylidene)-N-(7-hydroxynaphthalen-1-yl)acetamide] | A (compounds of the present invention having an A2 value of less than 100 nM are represented by A)
O=C(/C=C1\CCN(C(=O)C2CCC2)c2cc(C(F)(F)F)ccc21)Nc1ccc2cccnc2c1 [Example 75, (E)-2-(1-cyclobutanecarbonyl-7-trifluoromethyl-2,3-dihydroquinolin-4(1H)-ylidene)-N-(quinolin-7-yl)acetamide] | A (compounds of the present invention having an A2 value of less than 100 nM are represented by A)
CC(C)(C)CC(=O)N1CC/C(=C\C(=O)Nc2ccc3cccnc3c2)c2ccc(C(F)(F)F)cc21 [Example 76, (E)-2-(1-(3,3-dimethylbutanoyl)-7-trifluoromethyl-2,3-dihydroquinolin-4(1H)-ylidene)-N-(quinolin-7-yl)acetamide] | A (compounds of the present invention having an A2 value of less than 100 nM are represented by A)
CC(C)CC(=O)N1CC/C(=C\C(=O)Nc2ccc3cccnc3c2)c2ccc(C(F)(F)F)cc21 [Example 77, (E)-2-(1-(3-methylbutanoyl)-7-trifluoromethyl-2,3-dihydroquinolin-4(1H)-ylidene)-N-(quinolin-7-yl)acetamide] | A (compounds of the present invention having an A2 value of less than 100 nM are represented by A)
CC(C)CCC(=O)N1CC/C(=C\C(=O)Nc2ccc3cccnc3c2)c2ccc(C(F)(F)F)cc21 [Example 78, (E)-2-(1-(4-methylpentanoyl)-7-trifluoromethyl-2,3-dihydroquinolin-4(1H)-ylidene)-N-(quinolin-7-yl)acetamide] | A (compounds of the present invention having an A2 value of less than 100 nM are represented by A)
CCC(C)CC(=O)N1CC/C(=C\C(=O)Nc2ccc3cccnc3c2)c2ccc(C(F)(F)F)cc21 (stereo not shown) [Example 79, (E)-2-(1-(3-methylpentanoyl)-7-trifluoromethyl-2,3-dihydroquinolin-4(1H)-ylidene)-N-(quinolin-7-yl)acetamide] | A (compounds of the present invention having an A2 value of less than 100 nM are represented by A)
CCCC(C)C(=O)N1CC/C(=C\C(=O)Nc2ccc3cccnc3c2)c2ccc(C(F)(F)F)cc21 (stereo not shown) [Example 80, (E)-2-(1-(2-methylpentanoyl)-7-trifluoromethyl-2,3-dihydroquinolin-4(1H)-ylidene)-N-(quinolin-7-yl)acetamide] | A (compounds of the present invention having an A2 value of less than 100 nM are represented by A)
CCCC(C)(C)C(=O)N1CC/C(=C\C(=O)Nc2ccc3cccnc3c2)c2ccc(C(F)(F)F)cc21 [Example 81, (E)-2-(1-(2,2-dimethylpentanoyl)-7-trifluoromethyl-2,3-dihydroquinolin-4(1H)-ylidene)-N-(quinolin-7-yl)acetamide] | A (compounds of the present invention having an A2 value of less than 100 nM are represented by A)
O=C(/C=C1\CCN(C(=O)C2CCCC2)c2cc(C(F)(F)F)ccc21)Nc1cccc2c1CC(O)CC2 (stereo not shown) [Example 82, (E)-2-(1-cyclopentanecarbonyl-7-trifluoromethyl-2,3-dihydroquinolin-4(1H)-ylidene)-N-(7-hydroxy-5,6,7,8-tetrahydronaphthalen-1-yl)acetamide] | A (compounds of the present invention having an A2 value of less than 100 nM are represented by A)
CCCCC(=O)N1CC/C(=C\C(=O)Nc2cccc3c2CC(O)CC3)c2ccc(C(F)(F)F)cc21 (stereo not shown) [Example 83, (E)-2-(1-pentanoyl-7-trifluoromethyl-2,3-dihydroquinolin-4(1H)-ylidene)-N-(7-hydroxy-5,6,7,8-tetrahydronaphthalen-1-yl)acetamide] | A (compounds of the present invention having an A2 value of less than 100 nM are represented by A)
